Results on 91 molecules are retold here after a melting point compilation (Tetko et al.; mined from patent text by program, amines drawn as free bases though some values may be those of a salt).

The term melting point denotes the temperature of the solid-liquid transition. `ClCCCC1(c2ccccc2)OCCO1` displayed a melting point of 54 to 55.5 °C.
In the case of `COc1cc(OC)c(C(=O)N2CCc3cc(O)ccc3C2)cc1OC`, the melting point lay in the range of 180 to 188 °C.
Consider `COc1ccc(C2CC(=O)N(Cc3ccc4cc(F)ccc4n3)C2)cc1OC1CCCC1` (stereo unspecified), for which the melting point lay in the range of 65 to 68 °C.
For `N#CCCNC(=O)c1n[nH]cc1NC(=O)c1ccc(C(F)(F)F)cc1` the value was 245 to 246 °C; for `Cc1ccc(S(=O)(=O)OCCc2ccc3cc(Br)ccc3n2)cc1`, 107 to 109 °C; for `NCCc1ccc(OCc2ccccc2)cc1`, 58.7 to 59.6 °C.
For `O=C(CCc1ccccc1)N[C@H]1CC[C@H](c2ccc(O)cc2)CC1` the value was 201 to 206 °C; for `COc1ccc(CNc2n[nH]cc2C#N)cc1OC1CCCC1`, 159 to 160 °C.
In the case of `CCOC(=O)C1CSCCN1C(=O)Nc1ccc(Cl)cc1F` (stereo unspecified), the melting point was determined as 112 °C.
Molecule `c1ccc(CN2CCN(c3cccc4cccnc34)CC2)cc1` returned a melting point of 116 to 118 °C.
Next, `COC(=O)c1ccc(Cn2c(=O)c(C)c3sc(C(=O)NCc4ccc(F)cc4)cn3c2=O)cc1OC`: 191 to 193 °C; `COC(=O)COc1cccc2c(CCN=[N+]=[N-])coc12`: 95 to 97 °C; `NS(=O)(=O)c1ccc(-c2noc(-c3cnn4c(C(F)(F)F)cc(-c5ccc(C(F)(F)F)cc5)nc34)n2)s1`: 276 °C.
Next, `CCOC(=O)C(=O)c1ccc(OCCCCCCc2cccc(OCc3ccccc3)c2OCc2ccccc2)cc1`: 39 to 42 °C; `Cc1noc(-c2ccc(C(=O)N3Cc4cccn4Cc4ccccc43)cc2)n1`: 177 to 179 °C; `Nc1cc(-c2ccnc3c(C(=O)c4cccs4)cnn23)cs1`: 174 to 176 °C.
For `Cc1cc(C)n(C)c(=O)n1` the value was 58 to 60 °C.
In turn, `Cc1cc(Cl)c(C(N)=O)cc1[N+](=O)[O-]` displayed a melting point of 180 to 183 °C.
For `CC(C)(C)OC(=O)N[C@H]1C(=O)N[C@H]1CO` (relative stereo) the value was 128 to 131 °C; for `c1cncc(-c2nsnc2SCCCc2cccs2)c1`, 98 to 100 °C; for `Cc1cccc2nc(C(S)c3ncnc4[nH]cnc34)n(-c3ccccc3F)c(=O)c12` (stereo unspecified), 152 °C.
Next, `Nc1nc2c(s1)CCN(CC=Cc1ccccc1F)CC2`: 96 to 102 °C; `NC(=O)c1cc2c(c(C(=O)O)c1)NCCC2`: 268 to 269 °C; `COc1ccc(C2(c3cccc(CCc4ccccc4)n3)OCCCO2)cc1OC`: 86 to 87 °C.
Molecule `COc1cc(C)c2ccc(N3C(=O)C4=C(SCCS4)C3OC(=O)N3CCN(C)CC3)nc2n1` (stereo unspecified) gave a melting point of 232 to 234 °C.
For `CC(C)c1ccc(C(=O)CCCCl)cc1` the value was 35 to 37 °C.
For `CCC1C(=O)Nc2cc3[nH]c(-c4ccc(NC(C)=O)cc4OC)nc3cc21` (stereo unspecified) the value was 245 to 249 °C; for `Cc1cc(CSCCC(=C(N)NCCc2cccc(O)c2)[N+](=O)[O-])sc1CN(C)C`, 114 to 115 °C; for `CCOC(=O)/C=C1\CCOc2ccc(N)cc21`, 97 °C.
For `COc1ccc(C(C#Cc2ccccc2)Cc2ncc(C)o2)cc1OC1CCCC1` (racemic) the value was 103 to 104 °C.
`COc1cc2c(nc1OC)c(-c1cc3cc(F)cnc3[nH]1)cn2CCN1CCOCC1` showed a melting point of 218 °C.
Regarding `Cc1cc(CCCCCCCOc2ccc(C(=O)OC(C)(C)C)cc2)on1`, the melting point came out at 76 °C.
`CC1(c2nnn[nH]2)CC(Cl)(I)C=CC1N` (stereo unspecified) yielded a melting point of 205 to 208 °C.
With `CCCCCCCCCCN=C1SC(=CC(=O)O)C(=O)N1CCCCCCCCCC`, the melting point was 68 to 69 °C.
For the molecule `CCCCCCCCCCC[C@@H]1CC(=O)CC(=O)O1`, the melting point was 82 to 85 °C.
Next, `Cc1nccn1CCCNC(=O)c1cccc2oc(-c3ccccc3)nc12`: 145 to 148 °C; `CCOC(=O)C1=C(COCc2nnc(N)s2)NC(C)=C(C(=O)OC)C1c1cccc(Cl)c1Cl` (stereo unspecified): 194 °C.
Next, `CCOCC(O)COc1ccc(NC(=O)CCS(C)(=O)=O)cc1` (stereo unspecified): 111 to 112 °C; `NS(=O)(=O)c1ccccc1-c1ccc(C(=O)N2Cc3ccc(C(=O)NCc4cccnc4)n3Cc3ccccc32)cc1`: 153 to 156 °C.
`CN(C)S(=O)(=O)c1cc(N=C=O)ccc1Cl` registered a melting point of 82 to 85 °C.
`O=c1oc2ccccc2c(O)c1CCC(O)c1ccccc1` (stereo unspecified) showed a melting point of 138 to 140 °C.
Next, `CC(C)n1c(C=O)c(-c2ccc(F)cc2)c(-c2ccc(F)cc2)c1C(=O)Nc1cccc(C(=O)N(C)C)c1`: 133 to 135 °C; `Cc1cc(N)cnc1-c1ccccc1`: 93 to 98 °C; `COc1ccc([C@@H]2CN(C)CC[C@@H]2NC(=O)c2ccc(Cl)c(Cl)c2)cc1OC` (relative stereo): 134 to 135 °C.
Next, `COc1nc(C)nc(NC(=O)NS(=O)(=O)c2c(C)csc2C)n1`: 189 °C; `CCCCCNC(=O)CC(=O)O`: 67.5 to 68.5 °C; `CCCC(C(=O)OCC)n1cnc(C(N)=O)c1` (stereo unspecified): 95 °C.
`O=C1CCC(Cc2ccccc2Cl)CC1` yielded a melting point of 48 °C.
For `COC(=O)c1ccccc1S(=O)(=O)NC(=O)Nc1nnc(SC)n(C)c1=O` the value was 186 to 187 °C.
For `Clc1cn2c(Cl)cnc2c(Br)n1` the value was 100 to 101 °C.
For `CCCCCCCCCCC1(CCCCCCCCCC)c2cc(Br)ccc2-c2ccc(I)cc21` the value was 43 to 45 °C.
In the case of `CCC1CC2C3CCC4=CC(=O)CCC4=C3C=CC2(CC)C1O` (stereo unspecified), the melting point lay in the range of 184 to 187 °C.
Next, `COc1ccc(C(=N)c2ccc(Cl)cc2)c(O)c1`: 212 to 214 °C; `Cc1cc(O)c(N2CC(=O)NS2(=O)=O)c(F)c1`: 164 to 166 °C.
Consider `O=C(c1ccccc1)c1cc(Cl)ccc1OCCCl`, for which the melting point lay in the range of 73 to 74.5 °C.
Molecule `CCCCNC(=O)Oc1cccc(NC(=O)C=C(C)OCC)c1` yielded a melting point of 164 °C.
`Cc1cc(C)cc(C(=O)N2CC[C@H](NCc3ccnc4ccccc34)C[C@H]2Cc2ccc(Cl)c(Cl)c2)c1` (relative stereo) had a melting point of 121 to 124 °C.
With `CCC(C(C)=CC(CNC(=O)c1cccnc1F)=NO)[N+](=O)[O-]` (stereo unspecified), the melting point fell in the range of 91 to 92 °C.
For `O=C(OCC12CCCN(CC1)C2)c1c[nH]c2ccccc12` (stereo unspecified) the value was 184 to 185 °C.
Next, `CC(O)c1cn(C2CCc3c(F)cc(F)cc3C2)c(=S)[nH]1` (stereo unspecified): 210 to 211 °C; `Cc1c(OCc2ccccc2)cc(C(C)(C)C)cc1[N+](=O)[O-]`: 77 to 79 °C.
Regarding `Clc1cc2nc(CBr)c(CBr)nc2cc1Cl`, the melting point was 154 to 156 °C.
Next, `c1ccc2c(c1)CCSO2`: 119 to 120 °C; `CCCCNc1nc(C)c(C(=O)c2ccc(N)c([N+](=O)[O-])c2)s1`: 200 to 205 °C.
With `COc1ccc(CN2C(=O)C3CC(c4ccc(N)cc4)(C3)C2=O)cc1`, the melting point lay in the range of 147 to 148 °C.
Next, `N=C(N)c1ccc(N2CCN(c3ccc(CCC(=O)O)cc3)S2(=O)=O)cc1`: more than 275 °C; `CCCCc1nc2c(c(C)c(C)n3nnnc23)n1CC(C)(C)NS(C)(=O)=O`: 75 to 90 °C.
In the case of `CC(=O)C=Cc1c(C)c(C)c(C)c2c1OC(C)(C)C2`, the melting point is 125 °C.
As to `C=C(C(=O)NC1CCCCC1)c1ccccc1`, the melting point fell in the range of 131 to 133 °C.
For `CC(=O)Nc1ccc(OCC(O)CNC2CCc3ccccc3C2)cc1` (stereo unspecified), the melting point lay within 133 to 136 °C.
For `CC(C)c1ccc(SCc2c(C(C)C)nc(C(C)C)c(CO)c2-c2ccc(F)cc2)cc1` the value was 108 to 109 °C; for `NS(=O)(=O)c1ccc(-c2oc(Cl)nc2-c2ccccc2)cc1`, 158 to 159 °C.
Next, `OCCCc1ccc(Sc2ccc(CCCO)cc2C(F)(F)F)c(C(F)(F)F)c1`: 96 to 102 °C.
Consider `COc1ccc(CN(C)CCSc2ccc(NC(=O)c3cccc4c(=O)c5ccccc5[nH]c34)cc2)cc1OC`, for which the melting point is 113 °C.
For `Oc1ccc2c(c1)C[C@@H](NC[C@H](O)c1ccc(OCc3ccccc3)cc1)CC2` the value was 132 to 134 °C; for `Nc1c2c(nc3ccccc13)CCCC2N1CCOCC1` (stereo unspecified), 215 to 217 °C.
For `CN(c1cccc2cc(C3=NCC(CN4CCS(=O)(=O)CC4)S3)[nH]c12)S(=O)(=O)c1ccccn1` (stereo unspecified) the value was 188 to 189 °C; for `CCNC(=O)Oc1ccc2c(N(C)CCN3CCOCC3)noc2c1`, 99 to 100 °C.
Next, `CCCCNC(=O)NS(=O)(=O)c1c(C)nn(C)c1OC`: 135 to 142 °C; `CNC(=O)c1ccc(C(=O)OC)cc1[N+](=O)[O-]`: 155 °C.
`Cc1oc(-c2ccccc2)nc1COc1ccc(COc2nn(Cc3ccccc3)cc2CCC(=O)O)cn1`: the melting point lay within 130 to 131 °C.
Next, `Cc1ccc(-c2ccc([Si](C)(C)C)cc2)nc1`: 66.1 °C.
In turn, `COc1cc(C(=O)Nc2cccc3c2CN(C)CC3)cc(OC)c1OC` gave a melting point of 177 to 178 °C.
Next, `OC1CSC(Oc2ccccc2-c2ccoc2)C(O)C1O` (stereo unspecified): 102 °C; `O=C(CC1c2ccccc2C(=O)N1c1ccc(Cl)cn1)N1CCCCC1` (stereo unspecified): 165 to 166 °C.
For `c1ccc(CCNc2cc(-n3cccn3)nc(-c3ccco3)n2)nc1`, the melting point was in the range of 110 to 111 °C.
The molecule `Cc1ccc([N+](=O)[O-])cc1S(=O)(=O)n1ccnc1C` came in with a melting point of 159 to 161 °C.
Next, `CCOC(=O)c1ncn2c1CN=C(Cl)c1cc(OC)ccc1-2`: 186 °C.
Next, `C=CCNC(=O)c1ccc(N)cc1Br`: 115 to 117 °C.
For `CCOC(=O)Cc1sc(SCc2ccc(C(=O)OC)s2)nc1C` the value was 49 to 51 °C; for `COC(=O)c1cc(COc2ccccc2)cc(C(=O)OC)c1`, 95 to 97 °C.
